Reference: patent US20080214563A1, “Benzimidazole Thiophene Compounds As Plk Modulators” (priority 2005, published 2008)
pIC50: −log10 of the molar value.

Legend:
RKO = assay: Methylene Blue Cell Growth Inhibition Assay, RKO; type: cell-based; details: Homo sapiens, 72 h, read-out: MEB RKO IC50
Procedure: Normal human foreskin fibroblasts (HFF), human colon (HCT116, RKO), lung (H460, A549) and breast (MCF7) tumor cell lines were cultured in high glucose DMEM (Life Technologies) containing 10% fetal bovine serum (FBS) at 37° C. in a humidified 5% CO2, 95% air incubator. Cells were harvested using trypsin/EDTA, counted using a haemocytometer, and plated in 100 μL of culture media per well, at the following densities, in a 96-well tissue culture plate (Falcon 3075): HFF 5,000 cells/well, HCT116 3,000 cells/well, RKO 2,500 cells/well, H460 2,500 cells/well, A549 5,000 cells/well, MCF7 4,000 cells/well. The next day, compounds were diluted in low glucose DMEM containing 100 μg/mL gentamicin, at twice the final required concentration, from 10 mM stock solutions in DMSO. 100 μL/well of these dilutions were added to the 100 μL of media currently in the assay plates. Medium containing 0.6% DMSO was added to control wells. The final concentration of DMSO in all wells was 0.3%. Cells were incubated at 37° C., 5% CO2 for 72 h. Medium was removed by aspiration. Cell biomass was estimated by staining cells with 80 μL per well methylene blue (Sigma M9140, 0.5% in 50:50 ethanol:water), and incubation at room temperature for 30-60 min. Stain was removed by aspiration and the plates rinsed by immersion in water, then air-dried. To release stain from the cells, 100 μL of solubilization solution was added (1% N-lauroyl sarcosine, Sodium salt, Sigma L5125, in PBS), and plates were shaken gently for about 30 min. Optical density at 620 nm was measured on a microplate reader. Percent inhibition of cell growth was calculated relative to vehicle treated control wells. Concentration of compound that inhibits 50% of cell growth (IC50) was interpolated using nonlinear regression (Levenberg-Marquardt) and the equation, y=Vmax*(1−(x/(K+x)))+Y2, where “K” was equal to the IC50.

HCT-116 = assay: Cell-Titer Glo Cell Growth Inhibition Assay, HCT116; type: cell-based; details: Homo sapiens, CellTiter-Glo, 72 h, read-out: CTG HCT116 IC50
In short: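 Human tumour cells in RPMI1640 + 10% FBS, plated at 500 cells/well, rested overnight, then given two-fold compound dilutions (0.15% DMSO) for 72 h at 37° C, 5% CO2. CellTiter-Glo luminescence read against a day-0 plate; IC50 from 4- or 6-parameter fit after no-cell background subtraction.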

A549-L = assay: Cell-Titer Glo Cell Growth Inhibition Assay, A549-L; type: cell-based; details: Homo sapiens, CellTiter-Glo, 72 h, read-out: CTG A549-L IC50
Procedure: (§1) A549-L (human lung), BT474 (human breast), Colo 205 (human colon), H1299 (human lung), Hela (human cervix), HCT-116 (human colon), HN5 (human head and neck), HT29 (human colon), LNCap (human prostate), MCF7 (human breast), MDA-MB468 (human breast), MX-1 (human breast), RPMI 8226 (human peripheral blood), SKOV3 (human ovary) and P388 (murine leukemia) cell lines were cultured in RPMI1640 containing 10% fetal bovine serum at 37° C. in a 5% CO2 incubator. Cell lines were split into T75 flasks (Falcon #353136) two to three days prior to assay set up at density which yields approximately 70-80% confluency at time of harvest for assay. Cells were harvested using 0.25% trypsin with EDTA (Glibco/Invitrogen #25200-056), Cell counts were performed on cell suspensions using Trypan Blue exclusion staining, cells were then plated in 105 uL of culture media per well at the following densities in 96 well Costar #3916 black flat bottom plates: All human cell lines were plated at 500 cells/well. P388 were plated at 250 cells/well. All plates were placed at 5% CO2 37° C. overnight and then test compounds were added the following day. One plate of each cell type is treated with CellTiter-Glo (Promega #G7573) for a day 0 proliferation measurement and read as described below. The test compounds are prepared in clear U bottom polypropylene 96 well plates (Falcon #35-1190 with consecutive two fold dilutions. 9 uL of these dilutions was added into each well of the cell plates. The final concentration of DMSO in all wells is 0.15%. Cells were incubated at 37° C., 5% CO2 for 72 h. Following 72 h of incubation with compounds each plate was developed and read. CellTiter-Glo reagent was added to assay plates using a volume equivalent to the cell culture volume in the wells. Plates were shaken for approximately two minutes and incubated at room temperature for approximately 15 min and the chemiluminescent signal is read on the Victor V or Envison 2100 reader. […] Concentration of compound that inhibited 50% of cell growth (IC50) was analysis by 4 or 6 parameter fit of data using XLfit, value of no cell addition was subtracted from all samples for background.

SKOV3 = assay: Cell-Titer Glo Cell Growth Inhibition Assay, SKOV-3; type: cell-based; details: Homo sapiens, SK-OV-3, CellTiter-Glo, 72 h, read-out: CTG SKOV-3 IC50
Procedure: as §1

MX-1 = assay: Cell-Titer Glo Cell Growth Inhibition Assay, MX-1; type: cell-based; details: Homo sapiens, MX1, CellTiter-Glo, 72 h, read-out: CTG MX-1 IC50
Procedure: as §1

[1] = Intravenous pharmacokinetics in CD-1 mouse; type: in vivo; details: plasma, iv bolus, male CD-1 mouse, dose 1.9-7.4 mg/kg per compound (Table 3); for clearance: read-out: Plasma CL

Row | pIC50 (HCT-116) | pIC50 (A549-L) | pIC50 (SKOV3) | AUC(0-t) [1] [ng·h/mL] | clearance [1] [mL/min/kg] | SMILES | pIC50 (RKO) | pIC50 (MX-1)
1 | > 7.00 | 6.00 to 7.00 | 6.00 to 7.00 | 3420 | 23.5 | C[C@@H](Oc1cc(-n2cnc3cc(-c4ccc(N5CCNCC5)nc4)ccc32)sc1C(N)=O)c1ccccc1C(F)(F)F [Example 1, 5-{5-[6-(1-piperazinyl)-3-pyridinyl]-1H-benzimidazol-1-yl}-3-({(1R)-1-[2-(trifluoromethyl)phenyl]ethyl}oxy)-2-thiophenecarboxamide] | > 7.00 | > 7.00
2 | > 7.00 | > 7.00 | 6.00 to 7.00 | 3740 | 33 | C[C@@H](Oc1cc(-n2cnc3cc(-c4ccc(N5CCNCC5)nc4)ccc32)sc1C(N)=O)c1ccccc1Cl [Example 7, 3-{[(1R)-1-(2-Chlorophenyl)ethyl]oxy}-5-{5-[6-(1-piperazinyl)-3-pyridinyl]-1H-benzimidazol-1-yl}-2-thiophenecarboxamide] | > 7.00 | 6.00 to 7.00

Row | SMILES | pIC50 (HCT-116) | pIC50 (A549-L) | pIC50 (SKOV3) | AUC(0-t) [1] [ng·h/mL] | clearance [1] [mL/min/kg] | pIC50 (RKO) | pIC50 (MX-1)
3 | C[C@@H](Oc1cc(-n2cnc3cc(-c4cnn(C)c4)ccc32)sc1C(N)=O)c1ccccc1Cl [Example 9, 3-{[(1R)-1-(2-Chlorophenyl)ethyl]oxy}-5-[5-(1-methyl-1H-pyrazol-4-yl)-1H-benzimidazol-1-yl]-2-thiophenecarboxamide] | > 7.00 | > 7.00 | > 7.00 | 5760 | 12.1 | > 7.00 | > 7.00
